# Laboratory results from article PMC3726599, “A Metabolically-Stabilized Phosphonate Analog of Lysophosphatidic Acid Attenuates Collagen-Induced Arthritis” (PLoS ONE, 2013).
# Legend:
# [1] = Mouse pharmacokinetics, plasma BrP-LPA by HPLC-MS/MS; type: in vivo; conditions: 10 mg/kg i.p.
# Protocol: BrP-LPA, LPA species (C14:0, C16:0, C18:0, C18:1 and C20:4) and LPC species (C14:0, C16:0, C18:0, C18:1 and C20:0) were measured in plasma with HPLC-ESI/MS/MS using RSLCnano system (Ultimate 3000) coupled in-line with an LTQ Orbitrap XL mass spectrometer (Thermo Scientific, Waltham, MA, USA). BrP-LPA and lipid (LPA, LPC) extraction from plasma was performed on ice according to the Folch method with minor modifications. Plasma samples (50 ul) were mixed with 950 ul PBS prior to extraction and spiked with the internal standard mix (17:1 LPA/LPC). Samples were extracted under neutral conditions with 4 ml of ice-cold CHCl3/CH3OH (2/1, v/v) followed by 2 ml of PBS-saturated ice-cold CHCl3/CH3OH (2/1, v/v). Each extraction step was followed by a 60 s vortex and a 1 min centrifugation step in a bench-top clinical centrifuge in a cold room at 4°C at 3,000 rpm. The lower chloroform organic phases from both neutral extraction steps were pooled and kept for LPC measurement. The remained aqueous phase was chilled on ice for 10 min and extracted twice with ice-cold acidified with acetic acid CHCl3/CH3OH (2/1, v/v) as above. The lower organic phases were pooled, neutralized to pH 6–7 (checked with pH paper as above) on ice and kept for LPA, BrP-LPA measurements. The kept neutral lower organic phase of neutral extraction and the neutralized acidified lower organic phase were evaporated to dryness. The resulting residues were resuspended in 0.15 ml of isopropanol and after brief vortex mixing the solution was transferred to the auto sampler vial. Recovery of LPA species was between 60% and 95%. Recovery of BrP-LPA was 70% and the recovery of LPC species was between 80% and 100%. […] The precursor ion mass was used for the quantification while lipid identity was confirmed by precursor ion fragmentation using collision induced dissociation (CID). […]
# (§1) BrP-LPA was administered intraperitoneally (IP) at 10 mg/kg in water to 6–8 week old female mice. […] Plasma samples were then analysed for plasma ATX activity and BrP-LPA/LPA/LPC levels with the TOOS activity assay and HPLC-MS/MS respectively. […]
# LPA2 = conditions: Ca++ mobilization, RH7777 cells; kind of constant not given; read-out: inhibition of LPA2; cited from earlier work
# plasma ATX activity = test system: T1, plasma ATX activity; assay: In vivo inhibition of plasma ATX activity (TOOS assay); set-up: species or system mouse; conditions: 10 mg/kg i.p.
# T1 construct: from tissue; host or cells: mouse plasma / whole blood
# Protocol: ATX/LysoPLD activity was assessed based on the amount of choline released from LPC with the use of TOOS (N-ethyl-N-(2-hydoroxy-3-sulfopropyl)-3-methylaniline) reagent. In this assay ATX-mediated LPC-liberated choline is oxidised by choline oxidase to betaine and hydrogen peroxide (H2O2). The latter in the presence of horseradish peroxidase reacts with TOOS and 4-aminoantipyrene (4-AAP) to form a pink quinoneimine dye measured at 555 nm. […]
# The liberated choline was detected by adding 100 μl of a color mix containing 4-AAP and TOOS (0.3 mM), horseradish peroxidase (5.3 UnitmL^−1) and choline oxidase (2 UnitmL^−1). Absorbance was measured at 555 nm and data were analyzed using the statistical software package Prism 4.0 (Graphpad Software Inc, La Jolla, CA, USA). For each sample and control the absorbance was plotted against time and the slope (da/min) for the linear (steady-state) portion of each reaction profile was calculated. Absorbance units were converted to nmol of choline/min/ml by comparison with a choline standard curve or by use of the extinction coefficient for the quinoneimine dye according to the following equation: [drawing 1] […]
# as §1
smiles,measurement,setting,value
"CCCCCCCCCCCCCCCC(=O)OC[C@@H](O)CC(Br)P(=O)(O)O (stereo partly drawn) [BrP-LPA, 1-bromo-3(S)-hydroxy-4-(palmitoyloxy)butyl-phosphonate]",Cmin,[1]; at 16 h,0.15 µM
same,Cmax,[1]; female mice,8 µM
same,t1/2,[1]; female mice,50 min
same,IC50,LPA2,1400 nM
same,reduction of plasma ATX activity,plasma ATX activity; 1 hour post administration,48%
same,"ATX activity, % of initial activity",plasma ATX activity; sixteen hours post administration,92%
